Each molecule was assayed on common house mosquitoes (Culex pipens pallens) at the last instar larval stages (assay: Test Example 2: mortality of common house mosquito larvae in treated water). Conditions: 24 h, 3.5 ppm in water, 30 last instar larvae, after 1 day.
Assay type: in vivo
Description: Each of the formulations that were prepared in Formulation Example 15 containing Present compounds (1), (2), (3) and (4) was diluted with water so as to make a concentration of each of the compound 500 ppm, to obtain a diluted solution containing Present compounds (1), (2), (3) and (4), respectively. The above-mentioned diluted solutions were added to 100 mL of ion-exchanged water (Concentrations of Present compounds were 3.5 ppm). Thirty (30) heads of common house mosquitoes (Culex pipens pallens) at the last instar larval stages were released into the resulting diluted solutions having the concentration of 3.5 ppm, and after 1 day, the life and death of the insects were examined, and the mortality of insects was calculated by the following equation. Mortality (%)=(Number of the dead insects/Number of test insects)×100
Work on `CC(C)(N)CNC(=O)c1cc(COCc2ccccc2)on1` [(1)] yielded a mortality at 3.5 ppm of no less than 91%.
For `CC(C)(N)CNC(=O)c1cc(COCc2ccc3ccccc3c2)on1` [(2)], the mortality at 3.5 ppm was no less than 91%.
`CCCCc1cc(C(=O)NCC(C)(C)N)no1` [(3)] was tested, and the mortality at 3.5 ppm was no less than 91%.
In the case of `CCCCc1cc(C(=O)NC(C)(C)C(C)(C)N)no1` [(4)], the mortality at 3.5 ppm is reported as no less than 91%.

From US10426168B2, “Agent for controlling noxious arthropods” (Sumitomo Chemical Company, Limited, priority 2015, dated 2019)
